As usually defined, the IC50 is the concentration that inhibits the measured activity by half.

Sequence of recombinant human NSD2 (O96028 2-1365 limits assumed): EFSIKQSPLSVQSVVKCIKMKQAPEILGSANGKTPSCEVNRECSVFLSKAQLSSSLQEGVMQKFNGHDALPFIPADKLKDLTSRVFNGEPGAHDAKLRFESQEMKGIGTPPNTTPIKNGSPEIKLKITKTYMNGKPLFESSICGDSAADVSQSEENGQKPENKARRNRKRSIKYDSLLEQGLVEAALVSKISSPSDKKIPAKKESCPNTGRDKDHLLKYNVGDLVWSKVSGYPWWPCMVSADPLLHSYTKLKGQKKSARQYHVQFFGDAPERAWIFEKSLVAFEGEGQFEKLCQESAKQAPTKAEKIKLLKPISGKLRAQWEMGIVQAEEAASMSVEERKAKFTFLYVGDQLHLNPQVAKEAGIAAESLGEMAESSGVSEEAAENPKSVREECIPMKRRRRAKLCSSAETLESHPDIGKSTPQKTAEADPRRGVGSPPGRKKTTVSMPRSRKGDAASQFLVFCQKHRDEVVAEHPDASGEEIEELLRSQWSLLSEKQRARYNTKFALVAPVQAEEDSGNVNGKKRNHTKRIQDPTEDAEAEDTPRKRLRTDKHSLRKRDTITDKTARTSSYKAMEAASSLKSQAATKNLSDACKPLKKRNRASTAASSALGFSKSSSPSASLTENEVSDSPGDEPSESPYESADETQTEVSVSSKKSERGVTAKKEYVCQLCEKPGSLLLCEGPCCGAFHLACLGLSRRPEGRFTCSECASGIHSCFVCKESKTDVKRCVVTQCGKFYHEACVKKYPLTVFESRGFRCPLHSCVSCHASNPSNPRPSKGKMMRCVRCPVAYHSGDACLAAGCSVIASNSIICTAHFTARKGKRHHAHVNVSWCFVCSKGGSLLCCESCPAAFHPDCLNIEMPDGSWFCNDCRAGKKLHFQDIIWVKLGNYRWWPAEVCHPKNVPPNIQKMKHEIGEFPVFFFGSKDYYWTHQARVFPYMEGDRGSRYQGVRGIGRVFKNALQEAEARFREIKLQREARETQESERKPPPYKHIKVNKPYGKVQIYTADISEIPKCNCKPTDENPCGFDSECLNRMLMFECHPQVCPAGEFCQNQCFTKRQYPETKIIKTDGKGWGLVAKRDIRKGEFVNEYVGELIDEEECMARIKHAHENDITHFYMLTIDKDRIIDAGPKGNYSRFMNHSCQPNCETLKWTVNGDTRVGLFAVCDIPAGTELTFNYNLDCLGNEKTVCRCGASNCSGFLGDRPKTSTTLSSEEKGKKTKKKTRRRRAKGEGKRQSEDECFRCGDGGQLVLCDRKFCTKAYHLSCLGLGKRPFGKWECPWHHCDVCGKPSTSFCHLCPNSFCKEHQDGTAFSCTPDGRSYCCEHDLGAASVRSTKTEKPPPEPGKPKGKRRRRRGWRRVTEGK

The test addresses recombinant human NSD2 (Homo sapiens (Human), UniProt O96028). The experiment in a line: NSD2 inhibitory activity, modified RBC HotSpot HMT Assay (3H-SAM, oligonucleosome substrate). It is filed as biochemical. The following applies: recombinant human NSD2 (2 nM), chicken oligonucleosomes 0.05 mg/ml, 3H-SAM 1 μM, 1 hour at 30° C. The method, then: Exemplary compounds were tested for NSD2 inhibitory activity using a modified RBC HotSpot HMT Assay.
A reaction mixture was prepared by adding oligonucleosomes from Chicken (0.05 mg/ml) to freshly prepared reaction buffer containing 50 mM Tris-HCl (pH 8.5), 50 mM NaCl, 5 mM MgCl2, 0.01% Brij35, 1 mM DTT, and 1% DMSO followed by the addition of recombinant human NSD2, (amino acids 2-end) with N-terminal His tag (2 nM; GenBank Accession No. NM_001042424; MW=155.5 kDa; expressed in Sf9 insect cells) and gentle mixing. The test compounds were diluted in DMSO, added to the reaction mixture in nanoliter amounts by using Acoustic Technology (Echo 550, LabCyte Inc. Sunnyvale, CA) and incubated for 20 minutes at room temperature. The reaction was initiated by the addition of S-Adenosyl-L-[methyl-^3H] methionine (3H-SAM; 1 μM), and the mixture was incubated for 1 hour at 30° C. The reaction mixture was delivered to filter paper and the methylated substrate was quantified by scintillation counting. Data analysis was performed using Excel and GraphPad Prism software for IC50 curve fits. For additional information on the histone methyltransferase assay, see, for example, Horiuchi K Y, et al., “Assay Development for Histone Methyltransferases,” Assay Drug Dev Technol. 2013 May; 11 (4): 227-36.
For the compound `COc1cc(F)c(-c2ccc(N3CCC[C@](N)([C@H](O)C(F)F)C3)c(Cn3cnc4c(N)ncnc43)c2)cc1F` [Compound I-1, (S)-1-((R)-3-amino-1-(3-((6-amino-9H-purin-9-yl)methyl)-2′,5′-difluoro-4′-methoxy-[1,1′-biphenyl]-4-yl)piperidin-3-yl)-2,2-difluoroethan-1-ol], the IC50 was in the range of 1 to 10 nM. As for `COc1cc(F)c(-c2cnc(N3CCC[C@](N)([C@H](O)C(F)F)C3)c(Cn3cnc4c(N)ncnc43)c2)cc1F` [II-1, (S)-1-((R)-3-amino-1-(3-((6-amino-9H-purin-9-yl)methyl)-5-(2,5-difluoro-4-methoxyphenyl)pyridin-2-yl)piperidin-3-yl)-2,2-difluoroethan-1-ol], the concentration for half-maximal inhibition (IC50) is 10 to 1000 nM. In the case of `COc1cc(F)c(-c2ccc(N3CCC[C@](N)([C@H](O)C(F)F)C3)c(Cn3cnc4c(N)ncnc43)n2)cc1F` [III-1, (S)-1-((R)-3-amino-1-(2-((6-amino-9H-purin-9-yl)methyl)-6-(2,5-difluoro-4-methoxyphenyl)pyridin-3-yl)piperidin-3-yl)-2,2-difluoroethan-1-ol] it was more than 1000 nM.

The record behind these values is patent US20250361235A1, “PIPERIDINYL-METHYLPURINE BENZENES AND RELATED COMPOUNDS AND THEIR USE IN TREATING DISEASES AND CONDITIONS” (K36 Therapeutics, Inc., priority 2022, published 2025).
